According to patent US12286442B2, “Methods and materials for increasing transcription factor eb polypeptide levels” (University of Pittsburgh—Of the Commonwealth System of …, priority 2019, dated 2025):

Key:
TFEB = test: High content screen measuring TFEB nuclear accumulation (TFEB nuclear/cytosol ratio) in BEAS-2B cells stably expressing TFEB-EGFP; assay type: cell-based, human; settings: 18 hours incubation
Outline: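 Readout: lowest compound concentration giving a 25% rise in nuclear/cytosol TFEB-GFP ratio, from DAPI-masked nuclear and mask-expanded cytosolic signals. Cells (BEAS-2B, TFEB-EGFP stable, ~2300–2500/well) rested 8 hours, then treated 18 hours with compound serial dilutions in 2% FBS medium before PFA fixation and DAPI staining.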

BEAS-2B cells = test: Toxicity: compound concentration needed to induce greater than 50 percent of cell loss; assay type: cell-based, human; settings: 18 hours incubation
Outline: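 Reported value is the concentration giving greater than 50 percent cell loss, grouped into bins (≥25 μM; between 1 and 25 μM; ≤1 μM as "+++"). Measured by high-content imaging of DAPI-stained BEAS-2B TFEB-EGFP cells fixed after 18 h compound exposure.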

Row | SMILES | efficacy (minimal compound concentration needed to increase TFEB nuclear/cytosol ratio by 25%) (TFEB) | toxicity (compound concentration needed to induce greater than 50 percent of cell loss) (BEAS-2B cells)
1 | O=C(Cn1c(=O)n(-c2ccccc2)c(=O)c2ccccc21)Nc1cccc(Cl)c1 [Compound 227] | + (“+” equals >25 μM) | + (cell loss of greater than 50 percent at a concentration that equals or is greater than 25 μM was represented as)
2 | CC(=O)c1cc(C)cc(Nc2nc(-c3ccncc3)nc3ccccc23)c1 [Compound 52] | + (“+” equals >25 μM) | + (cell loss of greater than 50 percent at a concentration that equals or is greater than 25 μM was represented as)
3 | CN(c1cccc(F)c1)c1nc(-c2ccncc2)nc2ccccc12 [Compound 4] | +++ (“+++” equals ≤1 μM) | +++ (cell loss of greater than 50 percent at a concentration that equals or is less than 1 μM was represented as “+++.”)
4 | Cc1ccc(-c2nc(Nc3cccc(F)c3)c3ccccc3n2)cc1 [Compound 159] | + (“+” equals >25 μM) | + (cell loss of greater than 50 percent at a concentration that equals or is greater than 25 μM was represented as)
5 | CCN(c1ccc2[nH]ccc2c1)c1nc(-c2ccncc2)nc2ccccc12 [Compound 72] | +++ (“+++” equals ≤1 μM) | +++ (cell loss of greater than 50 percent at a concentration that equals or is less than 1 μM was represented as “+++.”)
6 | CCc1nc2ccc(Nc3nc(-c4ccncc4)nc4ncccc34)cc2o1 [Compound 356] | +++ (“+++” equals ≤1 μM) | + (cell loss of greater than 50 percent at a concentration that equals or is greater than 25 μM was represented as)
7 | CC(=O)Nc1ccc(Nc2nc(-c3ccncc3)cc3ncccc23)cc1O [Compound 401] | +++ (“+++” equals ≤1 μM) | + (cell loss of greater than 50 percent at a concentration that equals or is greater than 25 μM was represented as)
8 | c1cc(-c2cc3cnccc3c(Nc3ccc4nc(C5CC5)sc4c3)n2)ccn1 [Compound 398] | +++ (“+++” equals ≤1 μM) | + (cell loss of greater than 50 percent at a concentration that equals or is greater than 25 μM was represented as)
9 | CC(C)c1nc2ccc(Nc3nc(-c4ccncc4)nc4cc(F)ccc34)cc2s1 [Compound 355] | ++ (“++” equals between ≤25 μM and >1 μM) | + (cell loss of greater than 50 percent at a concentration that equals or is greater than 25 μM was represented as)
10 | c1cc(-c2cc3cnccc3c(Nc3ccc4[nH]ccc4c3)n2)ccn1 [Compound 397] | ++ (“++” equals between ≤25 μM and >1 μM) | + (cell loss of greater than 50 percent at a concentration that equals or is greater than 25 μM was represented as)
11 | CS(=O)(=O)CCCNc1nc(-c2ccncc2)nc2ccccc12 [Compound 172] | + (“+” equals >25 μM) | + (cell loss of greater than 50 percent at a concentration that equals or is greater than 25 μM was represented as)
12 | c1cc(Nc2nc(-c3ccncc3)nc3ccccc23)c2[nH]ccc2c1 [Compound 98] | +++ (“+++” equals ≤1 μM) | + (cell loss of greater than 50 percent at a concentration that equals or is greater than 25 μM was represented as)
13 | Cn1c(=O)c2ccccc2n(CC(=O)Nc2ccc(F)cc2)c1=O [Compound 225] | + (“+” equals >25 μM) | + (cell loss of greater than 50 percent at a concentration that equals or is greater than 25 μM was represented as)
14 | c1cnc2nc(-c3ccncc3)nc(Nc3ccc4nc(C5CC5)oc4c3)c2c1 [Compound 391] | +++ (“+++” equals ≤1 μM) | + (cell loss of greater than 50 percent at a concentration that equals or is greater than 25 μM was represented as)
15 | c1cnc2nc(-c3ccncc3)nc(Nc3ccc4cn[nH]c4c3)c2c1 [Compound 135] | ++ (“++” equals between ≤25 μM and >1 μM) | + (cell loss of greater than 50 percent at a concentration that equals or is greater than 25 μM was represented as)
16 | Clc1cccc(Nc2nc(-c3ccncc3)nc3ccccc23)c1 [Compound 187] | +++ (“+++” equals ≤1 μM) | + (cell loss of greater than 50 percent at a concentration that equals or is greater than 25 μM was represented as)
17 | Cn1c(=O)c2ccccc2n(CC(=O)Nc2ccccc2)c1=O [Compound 224] | + (“+” equals >25 μM) | + (cell loss of greater than 50 percent at a concentration that equals or is greater than 25 μM was represented as)
18 | C=CCn1c(=O)c2ccc(C(=O)NCc3ccccc3)cc2n(Cc2ccc(C)cc2)c1=O [Compound 233] | + (“+” equals >25 μM) | + (cell loss of greater than 50 percent at a concentration that equals or is greater than 25 μM was represented as)
19 | c1ccc2c(Nc3ccc4nc(C5CC5)sc4c3)nc(-c3ccncc3)nc2c1 [Compound 91] | +++ (“+++” equals ≤1 μM) | + (cell loss of greater than 50 percent at a concentration that equals or is greater than 25 μM was represented as)
20 | CCCN(CCC)c1nc(-c2ccncc2)nc2ccccc12 [Compound 166] | + (“+” equals >25 μM) | + (cell loss of greater than 50 percent at a concentration that equals or is greater than 25 μM was represented as)
21 | Cc1nc2ccc(Nc3nc(-c4ccncc4)nc4ccncc34)cc2o1 [Compound 140] | + (“+” equals >25 μM) | + (cell loss of greater than 50 percent at a concentration that equals or is greater than 25 μM was represented as)
22 | Fc1cc(Nc2nc(-c3cc[nH]c3)nc3ncccc23)cc2cc[nH]c12 [Compound 385] | ++ (“++” equals between ≤25 μM and >1 μM) | + (cell loss of greater than 50 percent at a concentration that equals or is greater than 25 μM was represented as)
23 | Cc1ccc(-c2nc(Nc3ccccc3F)c3ccccc3n2)cc1 [Compound 201] | + (“+” equals >25 μM) | + (cell loss of greater than 50 percent at a concentration that equals or is greater than 25 μM was represented as)
24 | c1cncc(-c2cc3ncccc3c(Nc3ccc4nc(C5CC5)sc4c3)n2)c1 [Compound 247] | ++ (“++” equals between ≤25 μM and >1 μM) | + (cell loss of greater than 50 percent at a concentration that equals or is greater than 25 μM was represented as)
25 | Fc1cc(Nc2nc(-c3ccncc3)nc3ccccc23)cc(C(F)(F)F)c1 [Compound 18] | + (“+” equals >25 μM) | + (cell loss of greater than 50 percent at a concentration that equals or is greater than 25 μM was represented as)
26 | Cc1cc(C)cc(-n2c(=O)c3ccccc3n(CC(=O)Nc3c(C)cc(C)cc3C)c2=O)c1 [Compound 223] | + (“+” equals >25 μM) | + (cell loss of greater than 50 percent at a concentration that equals or is greater than 25 μM was represented as)
27 | FC1(F)Oc2ccc(Nc3nc(-c4ccncc4)nc4ccccc34)cc2O1 [Compound 17] | + (“+” equals >25 μM) | + (cell loss of greater than 50 percent at a concentration that equals or is greater than 25 μM was represented as)
28 | c1ccc2c(Nc3ccc4c(c3)CCN4)nc(-c3ccncc3)nc2c1 [Compound 35] | +++ (“+++” equals ≤1 μM) | ++ (cell loss of greater than 50 percent at a concentration less than 25 μM and greater than 1 μM was represented as)
29 | Cc1nc2ccc(Nc3nc(-c4ccncc4)cc4ncccc34)cc2s1 [Compound 400] | +++ (“+++” equals ≤1 μM) | + (cell loss of greater than 50 percent at a concentration that equals or is greater than 25 μM was represented as)
30 | Cc1cc(F)cc(Nc2nc(-c3ccncc3C)nc3ccccc23)c1 [Compound 53] | + (“+” equals >25 μM) | + (cell loss of greater than 50 percent at a concentration that equals or is greater than 25 μM was represented as)
